Reference: US20250074912A1, “IMPROVED PROCESS FOR THE PREPARATION OF UPADACITINIB” (MSN LABORATORIES PRIVATE LIMITED, R&D CENTER, priority 2022, published 2025)

Test: Storage stability of amorphous Upadacitinib
Format: physicochemical

stability on storage (12 months at 25° C./60+5% relative humidity): stable
stability on storage (12 months at 40±2° C./75±5% relative humidity): stable
SMILES: CC[C@@H]1CN(C(=O)NCC(F)(F)F)C[C@@H]1c1cnc2cnc3[nH]ccc3n12 [Amorphous form of Upadacitinib, (3S,4R)-3-ethyl-4-(3H-imidazo[1,2-a]pyrrolo[2,3-e]pyrazin-8-yl)-N-(2,2,2-trifluoroethyl)pyrrolidine-1-carboxamide]
